According to the CheMixHub ionic liquid set:
± gives the uncertainty stated by the source.

Assay: xn = mol fraction of the nth substance listed
Conditions: for electrical conductivity: 101 kPa; for viscosity: 100 kPa

CCCCCCCCCCCCCC[n+]1ccccc1.O=C([O-])C(O)c1ccccc1 + C[C@H](N)C(=O)O + O
electrical conductivity [S/m]
Conditions	293.15 K	298.15 K	303.15 K	308.15 K	313.15 K
x1 = 5.26e-06, x2 = 0.001799	0.00177 ± 0.00061	0.00202 ± 0.0007	0.00228 ± 0.00078	0.00255 ± 0.00087	0.00285 ± 0.00096
x1 = 6.85e-06, x2 = 0	0.00248 ± 0.00074	0.00278 ± 0.00083	0.00309 ± 0.00092	0.0034 ± 0.001	0.0037 ± 0.0011
x1 = 7.23e-06, x2 = 0.0009002	0.00232 ± 0.00067	0.00263 ± 0.00076	0.00296 ± 0.00085	0.00329 ± 0.00094	0.0036 ± 0.001
x1 = 1.107e-05, x2 = 0.001799	0.00339 ± 0.00068	0.00385 ± 0.00077	0.0043 ± 0.00086	0.00479 ± 0.00096	0.0053 ± 0.001
x1 = 1.32e-05, x2 = 0.0009002	0.00408 ± 0.00076	0.00462 ± 0.00086	0.00517 ± 0.00095	0.0057 ± 0.0011	0.0063 ± 0.0012
x1 = 1.424e-05, x2 = 0	0.00472 ± 0.00079	0.00529 ± 0.00089	0.00587 ± 0.00099	0.0065 ± 0.0011	0.0071 ± 0.0012
x1 = 1.688e-05, x2 = 0.001799	0.00492 ± 0.00076	0.00558 ± 0.00087	0.00625 ± 0.00098	0.007 ± 0.0011	0.0077 ± 0.0012
x1 = 1.79e-05, x2 = 0.0009002	0.00545 ± 0.00083	0.00618 ± 0.00094	0.0069 ± 0.001	0.0077 ± 0.0012	0.0084 ± 0.0013
x1 = 2.126e-05, x2 = 0	0.00671 ± 0.0009	0.0076 ± 0.001	0.0084 ± 0.0011	0.0093 ± 0.0013	0.0101 ± 0.0014
x1 = 2.178e-05, x2 = 0.001799	0.00627 ± 0.00086	0.00713 ± 0.00098	0.008 ± 0.0011	0.0088 ± 0.0012	0.0098 ± 0.0013
x1 = 2.206e-05, x2 = 0.0009002	0.0066 ± 0.0009	0.0075 ± 0.001	0.0084 ± 0.0011	0.0093 ± 0.0013	0.0102 ± 0.0014
x1 = 2.64e-05, x2 = 0.0009002	0.00784 ± 0.00099	0.0089 ± 0.0011	0.0099 ± 0.0013	0.011 ± 0.0014	0.0121 ± 0.0015
x1 = 2.686e-05, x2 = 0.001799	0.00759 ± 0.00095	0.0086 ± 0.0011	0.0097 ± 0.0012	0.0107 ± 0.0013	0.0118 ± 0.0015
x1 = 2.811e-05, x2 = 0	0.0086 ± 0.001	0.0097 ± 0.0012	0.0108 ± 0.0013	0.0122 ± 0.0015	0.0131 ± 0.0016
x1 = 3.092e-05, x2 = 0.0009002	0.0091 ± 0.0011	0.0103 ± 0.0012	0.0115 ± 0.0014	0.0128 ± 0.0015	0.014 ± 0.0017
x1 = 3.158e-05, x2 = 0.001799	0.0088 ± 0.001	0.01 ± 0.0012	0.0112 ± 0.0013	0.0124 ± 0.0014	0.0137 ± 0.0016
x1 = 3.46e-05, x2 = 0	0.0103 ± 0.0011	0.0116 ± 0.0013	0.0129 ± 0.0014	0.0145 ± 0.0016	0.0157 ± 0.0018
x1 = 3.653e-05, x2 = 0.0009002	0.0105 ± 0.0012	0.0119 ± 0.0013	0.0133 ± 0.0015	0.0148 ± 0.0016	0.0163 ± 0.0018
x1 = 3.702e-05, x2 = 0.001799	0.0101 ± 0.0011	0.0114 ± 0.0012	0.0128 ± 0.0014	0.0143 ± 0.0016	0.0158 ± 0.0017
x1 = 4.108e-05, x2 = 0	0.0117 ± 0.0012	0.0131 ± 0.0014	0.0146 ± 0.0015	0.0161 ± 0.0017	0.0179 ± 0.0019
x1 = 4.376e-05, x2 = 0.0009001	0.0119 ± 0.0013	0.0135 ± 0.0014	0.015 ± 0.0016	0.0168 ± 0.0018	0.0186 ± 0.002
x1 = 4.392e-05, x2 = 0.001799	0.0113 ± 0.0012	0.0128 ± 0.0013	0.0143 ± 0.0015	0.016 ± 0.0017	0.0178 ± 0.0019
x1 = 4.811e-05, x2 = 0	0.0129 ± 0.0013	0.0144 ± 0.0015	0.0161 ± 0.0017	0.0179 ± 0.0019	0.0198 ± 0.0021
x1 = 5.045e-05, x2 = 0.0009001	0.0129 ± 0.0013	0.0146 ± 0.0015	0.0163 ± 0.0017	0.0184 ± 0.0019	0.0203 ± 0.0021
x1 = 5.136e-05, x2 = 0.001799	0.0124 ± 0.0013	0.0139 ± 0.0014	0.0156 ± 0.0016	0.0175 ± 0.0018	0.0195 ± 0.002
x1 = 5.388e-05, x2 = 0	0.0137 ± 0.0014	0.0154 ± 0.0016	0.0172 ± 0.0018	0.0191 ± 0.002	0.0211 ± 0.0022
x1 = 5.768e-05, x2 = 0.0009001	0.014 ± 0.0014	0.0158 ± 0.0016	0.0177 ± 0.0018	0.0198 ± 0.002	0.022 ± 0.0022
x1 = 5.861e-05, x2 = 0.001799	0.0134 ± 0.0014	0.0151 ± 0.0015	0.0169 ± 0.0017	0.019 ± 0.0019	0.0211 ± 0.0022
x1 = 5.982e-05, x2 = 0	0.0145 ± 0.0015	0.0163 ± 0.0017	0.0182 ± 0.0019	0.0202 ± 0.0021	0.0224 ± 0.0023
x1 = 6.383e-05, x2 = 0.0009001	0.0148 ± 0.0015	0.0168 ± 0.0017	0.0188 ± 0.0019	0.021 ± 0.0021	0.0233 ± 0.0024
x1 = 6.559e-05, x2 = 0	0.0153 ± 0.0016	0.0172 ± 0.0018	0.0192 ± 0.0019	0.0213 ± 0.0022	0.0236 ± 0.0024
x1 = 6.569e-05, x2 = 0.001799	0.0143 ± 0.0015	0.0161 ± 0.0016	0.0181 ± 0.0018	0.0201 ± 0.002	0.0224 ± 0.0023
x1 = 6.998e-05, x2 = 0.0009001	0.0157 ± 0.0016	0.0177 ± 0.0018	0.0198 ± 0.002	0.0222 ± 0.0023	0.0246 ± 0.0025
x1 = 7.081e-05, x2 = 0	0.016 ± 0.0016	0.018 ± 0.0018	0.02 ± 0.002	0.0223 ± 0.0023	0.0246 ± 0.0025
x1 = 7.222e-05, x2 = 0.001799	0.0151 ± 0.0015	0.0171 ± 0.0017	0.0192 ± 0.0019	0.0214 ± 0.0022	0.0236 ± 0.0024
x1 = 7.595e-05, x2 = 0.0009001	0.0165 ± 0.0017	0.0187 ± 0.0019	0.0209 ± 0.0021	0.0234 ± 0.0024	0.026 ± 0.0026
x1 = 7.604e-05, x2 = 0	0.0167 ± 0.0017	0.0187 ± 0.0019	0.0209 ± 0.0021	0.0232 ± 0.0024	0.0258 ± 0.0026
x1 = 7.839e-05, x2 = 0.001799	0.0159 ± 0.0016	0.018 ± 0.0018	0.0201 ± 0.002	0.0225 ± 0.0023	0.0251 ± 0.0026
x1 = 8.072e-05, x2 = 0	0.0173 ± 0.0018	0.0194 ± 0.002	0.0217 ± 0.0022	0.0241 ± 0.0024	0.0266 ± 0.0027

CCO + C[C@H](N)C(=O)[O-].C[N+](C)(C)CCO
x2 = 0
Conditions	viscosity [mPa·s]
288.13 K	1.15 ± 0.28
289.34 K	1.12 ± 0.27
290.55 K	1.1 ± 0.26
291.74 K	1.06 ± 0.26
292.92 K	1.03 ± 0.25
294.1 K	1.01 ± 0.24
295.28 K	0.98 ± 0.24
296.45 K	0.96 ± 0.23
297.63 K	0.93 ± 0.22
298.8 K	0.9 ± 0.22
299.98 K	0.88 ± 0.21
301.16 K	0.85 ± 0.21
302.33 K	0.82 ± 0.2
303.51 K	0.8 ± 0.19
304.68 K	0.77 ± 0.19
305.86 K	0.73 ± 0.18
307.04 K	0.71 ± 0.17
308.21 K	0.68 ± 0.16

CCO + C[N+](C)(C)CCC[N+]1(C)CCCCC1.N#C[N-]C#N.N#C[N-]C#N
x2 = 0
Conditions	viscosity [mPa·s]
293.15 K	1.19 ± 0.12
303.15 K	0.991 ± 0.099
313.15 K	0.828 ± 0.083
323.15 K	0.705 ± 0.071
333.15 K	0.593 ± 0.059

CCO + C[N+](C)(C)CCC[n+]1ccccc1.N#C[N-]C#N.N#C[N-]C#N
x2 = 0
Conditions	viscosity [mPa·s]
293.15 K	1.19 ± 0.12
303.15 K	0.991 ± 0.099
313.15 K	0.828 ± 0.083
323.15 K	0.705 ± 0.071
333.15 K	0.593 ± 0.059

CCCCCC[N+]1(C)CCCC1.O=S(=O)([N-]S(=O)(=O)C(F)(F)F)C(F)(F)F + Cc1ccccc1
Conditions	viscosity [mPa·s]
293.15 K, x2 = 0.3938	37.27 ± 0.79
293.15 K, x2 = 0.7993	4.124 ± 0.088
303.15 K, x2 = 0.5961	11.17 ± 0.24
308.15 K, x2 = 0.29	30.33 ± 0.64
308.15 K, x2 = 0.7993	3.15 ± 0.067
313.15 K, x2 = 0	51 ± 1.1
